# According to ChEMBL document CHEMBL4004803, “Syntheses and antibacterial activity of soluble 9-bromo substituted indolizinoquinoline-5,12-dione derivatives” (Eur J Med Chem, 2017):
# How the values were obtained:
# [1] = test system: Staphylococcus aureus; assay: Antibacterial activity against methicillin-resistant Staphylococcus aureus 215073 clinical isolate after 20 to 24 hrs by two-fold microdilution method; assay type: functional
# [2] = Solubility of the compound in water at 25 degC measured after shaking for 4 hrs by UV method; assay type: physicochemical; settings: buffer, 4 h
# [3] = test system: Staphylococcus aureus; assay: Antibacterial activity against methicillin-resistant Staphylococcus aureus 20534 clinical isolate after 20 to 24 hrs by two-fold microdilution method; assay type: functional
# [4] = test system: Staphylococcus aureus; assay: Antibacterial activity against methicillin-resistant Staphylococcus aureus 1025022 clinical isolate after 20 to 24 hrs by two-fold microdilution method; assay type: functional
# [5] = test system: Staphylococcus aureus; assay: Antibacterial activity against methicillin-resistant Staphylococcus aureus 316038 clinical isolate after 20 to 24 hrs by two-fold microdilution method; assay type: functional
# [6] = test system: Staphylococcus aureus; assay: Antibacterial activity against methicillin-resistant Staphylococcus aureus 109244 clinical isolate after 20 to 24 hrs by two-fold microdilution method; assay type: functional
# [7] = test system: Staphylococcus aureus; assay: Antibacterial activity against methicillin-resistant Staphylococcus aureus 414244 clinical isolate after 20 to 24 hrs by two-fold microdilution method; assay type: functional
# [8] = test system: Staphylococcus aureus; assay: Antibacterial activity against methicillin-resistant Staphylococcus aureus 224001 clinical isolate after 20 to 24 hrs by two-fold microdilution method; assay type: functional
# [9] = test system: Staphylococcus aureus; assay: Antibacterial activity against methicillin-resistant Staphylococcus aureus 123152 clinical isolate after 20 to 24 hrs by two-fold microdilution method; assay type: functional
# [10] = test system: Staphylococcus aureus; assay: Antibacterial activity against methicillin-resistant Staphylococcus aureus 304243 clinical isolate after 20 to 24 hrs by two-fold microdilution method; assay type: functional
# [11] = test system: Staphylococcus aureus; assay: Antibacterial activity against methicillin-resistant Staphylococcus aureus 1106003 clinical isolate after 20 to 24 hrs by two-fold microdilution method; assay type: functional
# [12] = test system: Staphylococcus aureus; assay: Antibacterial activity against methicillin-resistant Staphylococcus aureus 518036 clinical isolate after 20 to 24 hrs by two-fold microdilution method; assay type: functional
# [13] = test system: Staphylococcus aureus; assay: Antibacterial activity against methicillin-resistant Staphylococcus aureus GLH14 clinical isolate after 20 to 24 hrs by two-fold microdilution method; assay type: functional
# [14] = test system: Staphylococcus aureus; assay: Antibacterial activity against methicillin-resistant Staphylococcus aureus clinical isolate after 20 to 24 hrs by two-fold microdilution method; assay type: functional
# [15] = test system: Staphylococcus aureus; assay: Antibacterial activity against methicillin-resistant Staphylococcus aureus 912014 clinical isolate after 20 to 24 hrs by two-fold microdilution method; assay type: functional
# [16] = test system: Staphylococcus aureus; assay: Antibacterial activity against methicillin-resistant Staphylococcus aureus 120827 clinical isolate after 20 to 24 hrs by two-fold microdilution method; assay type: functional
# [17] = test system: Staphylococcus aureus; assay: Antibacterial activity against methicillin-resistant Staphylococcus aureus 212014 clinical isolate after 20 to 24 hrs by two-fold microdilution method; assay type: functional
# [18] = test system: Staphylococcus aureus; assay: Antibacterial activity against methicillin-resistant Staphylococcus aureus 1207026 clinical isolate after 20 to 24 hrs by two-fold microdilution method; assay type: functional
# [19] = test system: Staphylococcus aureus; assay: Antibacterial activity against methicillin-resistant Staphylococcus aureus 131215 clinical isolate after 20 to 24 hrs by two-fold microdilution method; assay type: functional
# [20] = test system: Staphylococcus aureus; assay: Antibacterial activity against methicillin-resistant Staphylococcus aureus 1214023 clinical isolate after 20 to 24 hrs by two-fold microdilution method; assay type: functional
# [21] = test system: Staphylococcus aureus; assay: Antibacterial activity against methicillin-resistant Staphylococcus aureus 1103006 clinical isolate after 20 to 24 hrs by two-fold microdilution method; assay type: functional
# [22] = test system: Staphylococcus aureus; assay: Antibacterial activity against methicillin-resistant Staphylococcus aureus 112106 clinical isolate after 20 to 24 hrs by two-fold microdilution method; assay type: functional
# [23] = test system: Streptococcus pyogenes; assay: Antibacterial activity against Streptococcus pyogenes ATCC 19615 after 20 to 24 hrs by two-fold microdilution method; assay type: functional
# [24] = test system: Staphylococcus aureus; assay: Antibacterial activity against methicillin-resistant Staphylococcus aureus 202045 clinical isolate after 20 to 24 hrs by two-fold microdilution method; assay type: functional
# [25] = test system: Staphylococcus aureus; assay: Antibacterial activity against methicillin-resistant Staphylococcus aureus 1012039 clinical isolate after 20 to 24 hrs by two-fold microdilution method; assay type: functional
# [26] = test system: Enterococcus faecalis; assay: Antibacterial activity against Enterococcus faecalis ATCC 29212 after 20 to 24 hrs by two-fold microdilution method; assay type: functional
# [27] = test system: Staphylococcus aureus; assay: Antibacterial activity against methicillin-resistant Staphylococcus aureus 1211026 clinical isolate after 20 to 24 hrs by two-fold microdilution method; assay type: functional
# [28] = test system: Staphylococcus aureus; assay: Antibacterial activity against methicillin-resistant Staphylococcus aureus 221022 clinical isolate after 20 to 24 hrs by two-fold microdilution method; assay type: functional
# [29] = test system: Staphylococcus aureus; assay: Antibacterial activity against methicillin-resistant Staphylococcus aureus 1212221 clinical isolate after 20 to 24 hrs by two-fold microdilution method; assay type: functional
# [30] = test system: Escherichia coli; assay: Antibacterial activity against Escherichia coli ATCC 25922 after 20 to 24 hrs by two-fold microdilution method; assay type: functional
# [31] = test system: Staphylococcus aureus; assay: Antibacterial activity against methicillin-resistant Staphylococcus aureus 519238 clinical isolate after 20 to 24 hrs by two-fold microdilution method; assay type: functional
# [32] = test system: Staphylococcus aureus; assay: Antibacterial activity against methicillin-resistant Staphylococcus aureus 531220 clinical isolate after 20 to 24 hrs by two-fold microdilution method; assay type: functional
# [33] = test system: Staphylococcus aureus; assay: Antibacterial activity against methicillin-resistant Staphylococcus aureus 111423 clinical isolate after 20 to 24 hrs by two-fold microdilution method; assay type: functional
# [34] = test system: Staphylococcus aureus; assay: Antibacterial activity against methicillin-resistant Staphylococcus aureus 1216052 clinical isolate after 20 to 24 hrs by two-fold microdilution method; assay type: functional
# [35] = test system: Staphylococcus aureus; assay: Antibacterial activity against methicillin-resistant Staphylococcus aureus 130031 clinical isolate after 20 to 24 hrs by two-fold microdilution method; assay type: functional
# [36] = test system: Staphylococcus aureus; assay: Antibacterial activity against methicillin-resistant Staphylococcus aureus 502025 clinical isolate after 20 to 24 hrs by two-fold microdilution method; assay type: functional
# [37] = test system: Staphylococcus aureus; assay: Antibacterial activity against methicillin-resistant Staphylococcus aureus 110328-1 clinical isolate after 20 to 24 hrs by two-fold microdilution method; assay type: functional
# [38] = test system: Staphylococcus aureus; assay: Antibacterial activity against methicillin-resistant Staphylococcus aureus 1212057-1 clinical isolate after 20 to 24 hrs by two-fold microdilution method; assay type: functional
# [39] = test system: Staphylococcus aureus; assay: Antibacterial activity against methicillin-resistant Staphylococcus aureus 316031 clinical isolate after 20 to 24 hrs by two-fold microdilution method; assay type: functional
# [40] = test system: Staphylococcus aureus; assay: Antibacterial activity against methicillin-resistant Staphylococcus aureus 1024010 clinical isolate after 20 to 24 hrs by two-fold microdilution method; assay type: functional
# [41] = test system: Staphylococcus aureus; assay: Antibacterial activity against methicillin-resistant Staphylococcus aureus 110414 clinical isolate after 20 to 24 hrs by two-fold microdilution method; assay type: functional
# [42] = test system: Staphylococcus aureus; assay: Antibacterial activity against methicillin-resistant Staphylococcus aureus 908046 clinical isolate after 20 to 24 hrs by two-fold microdilution method; assay type: functional
# [43] = test system: Staphylococcus aureus; assay: Antibacterial activity against methicillin-resistant Staphylococcus aureus 20339 clinical isolate after 20 to 24 hrs by two-fold microdilution method; assay type: functional
# [44] = test system: Staphylococcus aureus; assay: Antibacterial activity against methicillin-resistant Staphylococcus aureus 219236 clinical isolate after 20 to 24 hrs by two-fold microdilution method; assay type: functional
# [45] = test system: Staphylococcus aureus; assay: Antibacterial activity against methicillin-resistant Staphylococcus aureus 1215028 clinical isolate after 20 to 24 hrs by two-fold microdilution method; assay type: functional
# [46] = test system: Staphylococcus aureus; assay: Antibacterial activity against methicillin-resistant Staphylococcus aureus 519030 clinical isolate after 20 to 24 hrs by two-fold microdilution method; assay type: functional
# [47] = test system: Staphylococcus aureus; assay: Antibacterial activity against methicillin-resistant Staphylococcus aureus 111625 clinical isolate after 20 to 24 hrs by two-fold microdilution method; assay type: functional
structure (smiles),measurement,setting,value
CN(C)CCCCCOC(=O)c1c2c(n3cc(Br)ccc13)C(=O)c1ncccc1C2=O,MIC,[1],0.5 µg/mL
same,solubility,[2],Insoluble
same,MIC,[3],0.5 µg/mL
same,MIC,[4],0.5 µg/mL
same,MIC,[5],0.25 µg/mL
same,MIC,[6],0.5 µg/mL
same,MIC,[7],0.5 µg/mL
same,MIC,[8],0.5 µg/mL
same,MIC,[9],0.25 µg/mL
same,MIC,[10],0.25 µg/mL
same,MIC,[11],16 µg/mL
same,MIC,[12],0.25 µg/mL
same,MIC,[13],0.5 µg/mL
same,MIC50,[14],0.25 µg/mL
same,MIC90,[14],0.5 µg/mL
same,MIC,[15],0.5 µg/mL
same,MIC,[16],0.25 µg/mL
same,MIC,[17],0.063 µg/mL
same,MIC,[18],0.125 µg/mL
same,MIC,[19],0.25 µg/mL
same,MIC,[20],≤ 0.0078 µg/mL
same,MIC,[21],16 µg/mL
same,MIC,[22],0.25 µg/mL
same,MIC,[23],2 µg/mL
same,MIC,[24],0.5 µg/mL
same,MIC,[25],0.125 µg/mL
same,MIC,[26],0.125 µg/mL
same,MIC,[27],0.25 µg/mL
same,MIC,[28],0.5 µg/mL
same,MIC,[29],0.125 µg/mL
same,MIC,[30],1 µg/mL
same,MIC,[31],1 µg/mL
same,MIC,[32],0.25 µg/mL
same,MIC,[33],2 µg/mL
same,MIC,[34],4 µg/mL
same,MIC,[35],0.5 µg/mL
same,MIC,[36],0.5 µg/mL
same,MIC,[37],0.063 µg/mL
same,MIC,[38],0.125 µg/mL
same,MIC,[39],0.5 µg/mL
same,MIC,[40],0.25 µg/mL
same,MIC,[41],0.5 µg/mL
same,MIC,[42],0.063 µg/mL
same,MIC,[43],0.5 µg/mL
same,MIC,[44],0.125 µg/mL
same,MIC,[45],0.125 µg/mL
same,MIC,[46],0.5 µg/mL
same,MIC,[47],0.25 µg/mL
